# Measurements published in PMC7114325 (Antiviral Research, 2008).
# Columns and labels:
# in vitro [1] = conditions: African green monkey
# West Nile virus = conditions: cited from earlier work
# in vitro [2] = conditions: hamster
Compound,CC50 (in vitro [1]) [µM],activity against West Nile virus (West Nile virus),CC50 (in vitro [2]) [µM],CC50 (Vero E6 cells) [µM],CC50 (BHK-21 cells) [µM]
"NC(=O)CCS(=O)(=O)c1ccc(Cl)cc1 [Compound C03455, 3-(4-Chlorobenzenesulfonyl)-propionamide]",> 100,active,87 ± 5.23,,
"CC1=C(C(=O)OCCc2ccccc2)C(c2ccccc2[N+](=O)[O-])C2=C(CCCC2=O)N1 (stereo not shown) [Compound C12344, 3-Quinolinecarboxylic acid, 1,4,5,6,7,8-hexahydro-2-methyl-4-(2-nitrophenyl)-5-oxo-, 2-phenylethyl ester]",> 100,,> 100,,
"CC(C)=CCC[C@](C)(O)C1CC[C@@H]2C1CC[C@H]1C2(C)CC[C@H]2C(C)(C)C(=O)CCC12C (stereo partly drawn) [Compound C01225, (5R,9S,14R)-dodecahydro-17-((S)-2-hydroxy-6-methylhept-5-en-2-yl)-4,4,8,10-tetramethyl-2Hcyclopenta[a]phenanthren-3(4H,9H,14H)-one]",> 100,,> 100,,
S-Nitroso-N-acetyl penicillamine [Compound C38477],,,,84 ± 2.96,58 ± 1.22
"N#Cc1c(N)nc(Sc2ccc(Cl)cc2)c(C#N)c1-c1cccs1 [Compound C47655, 2-Amino-6-[(4-chlorophenyl)thio]-4-(2-thienyl)pyridine-3,5-dicarbonitrile]",> 100,,> 100,,
"COc1cc(/C=C(/NC(=O)c2ccccc2)C(=O)NNC(=O)CN)ccc1O [Compound C11472, (E)-N′-(2-aminoacetyl)-2-(benzamido)-3-(4-hydroxy-3-methoxyphenyl)acrylohydrazide]",82 ± 4.33,,> 100,,
"CCOC(=O)c1cnc2ccc(OCC)cc2c1NCc1ccccc1 [Compound C26505, 4-Benzylamino-6-ethoxy-quinoline-3-carboxylic acid ethylester]",> 100,active,78 ± 4.87,,
